Experimental data reported in the NIST ThermoML archive (doi:10.1021/acs.jced.6b00772).
Numbers after ± are expanded uncertainties.

Conditions: Fluid (supercritical or subcritical phases), isochoric method

O=C(C(F)(F)C(F)(F)F)C(F)(C(F)(F)F)C(F)(F)F [dodecafluoro-2-methylpentan-3-one]
Conditions	mass density [kg/m3]
473.49 K, 4891.4 kPa	930.7 ± 3.8
473.5 K, 1102 kPa	107.5 ± 1.3
473.5 K, 1785 kPa	208.7 ± 1.7
473.5 K, 2476.2 kPa	383.9 ± 3.1
473.5 K, 2884.8 kPa	552.8 ± 4.1
473.5 K, 3074.2 kPa	625.5 ± 3.7
473.51 K, 2746.7 kPa	490 ± 3.8
473.51 K, 5591.7 kPa	978.2 ± 4
473.51 K, 6974.8 kPa	1042.2 ± 4.2
473.52 K, 4008.9 kPa	843.5 ± 3.6
473.52 K, 4147 kPa	860.7 ± 3.6
473.53 K, 3727.6 kPa	796.7 ± 3.6
483.48 K, 5762.4 kPa	930.3 ± 3.8
483.49 K, 1870.9 kPa	208.6 ± 1.5
483.49 K, 2209.8 kPa	270 ± 2.1
483.49 K, 2672.1 kPa	383.8 ± 2.7
483.5 K, 3464.6 kPa	625.2 ± 3.2
483.5 K, 3924.7 kPa	732.2 ± 3.4
483.5 K, 8161 kPa	1041.7 ± 4.2
483.51 K, 1138.4 kPa	107.4 ± 1.2
483.51 K, 3208.9 kPa	552.5 ± 3.4
483.52 K, 3020.8 kPa	489.7 ± 3.3
483.52 K, 4336.7 kPa	796.4 ± 3.4
483.52 K, 4691.3 kPa	843.1 ± 3.5
483.52 K, 4863.8 kPa	860.3 ± 3.6
483.52 K, 6584 kPa	977.8 ± 3.9
493.49 K, 1955 kPa	208.5 ± 1.4
493.49 K, 2329.9 kPa	269.9 ± 1.9
493.49 K, 2865 kPa	383.6 ± 2.4
493.5 K, 3858.2 kPa	624.9 ± 3
493.5 K, 4442.7 kPa	731.8 ± 3.2
493.5 K, 6642.5 kPa	929.8 ± 3.8
493.5 K, 9354.4 kPa	1041.2 ± 4.2
493.51 K, 1174.7 kPa	107.4 ± 1.2
493.51 K, 5382.6 kPa	842.7 ± 3.5
493.52 K, 3532.9 kPa	552.2 ± 2.9
493.52 K, 4954.4 kPa	796 ± 3.4
493.52 K, 5589.2 kPa	859.9 ± 3.5
493.53 K, 7585.3 kPa	977.3 ± 3.9
493.54 K, 3292.9 kPa	489.5 ± 2.8
503.49 K, 7526.9 kPa	929.4 ± 3.8
503.5 K, 2038.9 kPa	208.4 ± 1.3
503.5 K, 2448.7 kPa	269.7 ± 1.8
503.51 K, 1210.7 kPa	107.3 ± 1.1
503.51 K, 3055.8 kPa	383.4 ± 2.2
503.51 K, 4251.2 kPa	624.7 ± 2.8
503.52 K, 3562.4 kPa	489.3 ± 2.6
503.52 K, 4964.5 kPa	731.5 ± 3.1
503.53 K, 3855.8 kPa	552 ± 2.7
503.53 K, 5577.4 kPa	795.6 ± 3.3
503.53 K, 6079.9 kPa	842.3 ± 3.5
503.53 K, 6319.5 kPa	859.5 ± 3.5
503.53 K, 8592.1 kPa	976.8 ± 3.9
513.49 K, 2121.4 kPa	208.3 ± 1.3
513.49 K, 2565.8 kPa	269.6 ± 1.7
513.5 K, 1245.5 kPa	107.3 ± 1.1
513.5 K, 4646.1 kPa	624.4 ± 2.7
513.5 K, 5488.2 kPa	731.1 ± 3.1
513.5 K, 8416.4 kPa	928.9 ± 3.8
513.51 K, 3244.9 kPa	383.2 ± 2.1
513.52 K, 4177.8 kPa	551.7 ± 2.6
513.52 K, 6780.4 kPa	841.9 ± 3.4
513.52 K, 7055 kPa	859.1 ± 3.5
513.53 K, 3830.9 kPa	489 ± 2.5
513.53 K, 9599.7 kPa	976.4 ± 3.9
513.54 K, 6204.5 kPa	795.2 ± 3.3
523.49 K, 2682.3 kPa	269.5 ± 1.6
523.49 K, 5040.8 kPa	624.1 ± 2.7
523.49 K, 9308.2 kPa	928.5 ± 3.7
523.5 K, 1281.4 kPa	107.2 ± 1
523.5 K, 2203.4 kPa	208.2 ± 1.2
523.5 K, 3433 kPa	383 ± 2
523.52 K, 4099.2 kPa	488.8 ± 2.3
523.52 K, 6015.2 kPa	730.8 ± 3
523.53 K, 6832.9 kPa	794.9 ± 3.3
523.53 K, 7485.5 kPa	841.5 ± 3.4
523.54 K, 4499.9 kPa	551.5 ± 2.5
523.54 K, 7793.7 kPa	858.7 ± 3.5
